Assay results as given in patent publication US10280163B2 (BeiGene, Ltd., priority 2015, dated 2019).
pEC50: −log10 of the molar value. Where two headings read alike, the source gives them in different places.

Columns and labels:
[1] = target: T1, cellular IDO1 in HeLa cells (Homo sapiens, UniProt P14902); test: HeLa cell-based IDO1 Kyn (kynurenine) production assay; conditions: IFN-γ 100 ng/mL, 48 hours
T1 construct: endogenous in cells; host or cells: HeLa cells (American Type Tissue Culture Collection), induced with human recombinant IFN-γ
T1 sequence (P14902 whole entry): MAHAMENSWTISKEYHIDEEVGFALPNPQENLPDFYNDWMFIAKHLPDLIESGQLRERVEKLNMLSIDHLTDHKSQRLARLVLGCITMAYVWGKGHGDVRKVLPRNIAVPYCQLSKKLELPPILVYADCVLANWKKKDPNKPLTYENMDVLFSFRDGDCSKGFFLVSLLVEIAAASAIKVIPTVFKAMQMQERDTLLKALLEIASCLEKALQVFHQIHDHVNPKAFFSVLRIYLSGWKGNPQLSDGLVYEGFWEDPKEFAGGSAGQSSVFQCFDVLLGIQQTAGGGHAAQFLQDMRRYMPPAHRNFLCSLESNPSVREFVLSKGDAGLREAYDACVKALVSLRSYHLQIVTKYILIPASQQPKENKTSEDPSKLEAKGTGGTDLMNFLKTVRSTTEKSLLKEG
Description: HeLa Cell-Based IDO1 Kyn (Kynurenine) Production Assay:
The inhibitory activity of IDO1 inhibitors is determined by using a colorimetric reaction to measure Kyn generated from L-Trp (L-Tryptophon) oxidation by cellular IDO1 in HeLa cells after induction of IDO1 by IFN-γ.
Hela cells were obtained from the American Type Tissue Culture Collection and recovered in 10% FBS-containing phenol red-free DMEM medium supplemented with 0.4 mM L-Trp. Cells were plated onto a 96-well plate (100 μl/well) at 8000 cells per well. Human recombinant IFN-γ (8901SC, CST) was added to cells (final concentration 100 ng/mL) to stimulate endogenous IDO1. Compounds at different concentrations diluted in dimethylsulfoxide (DMSO) were added simultaneously with IFN-γ. Cells were kept at 37° C. in a humidified incubator supplied with 5% CO2. After 48 hours of incubation, 100 μl supernatant from each well was removed to a new plate. The protein in the medium was precipitated with the addition of 8 μl 6N trichloroacetic acid. The plate was incubated at 60° C. for 45 min and then centrifugation at 2500 rpm for 10 min to remove sediments. 80 μl supernatants were carefully removed to a new clean plate and added with an equal volume of 2% 4-(Dimethylamino) benzaldehyde (D2004, sigma) dissolved in glacial acetic acid. The absorbance at 480 nm wavelength derived from Kyn was measured using a FULOstar OMEGA plate reader (BMG LABTECH). The IC50 for each compound was derived from fitting the dose-response data to the four-parameter logistic model by using Graphpad Prism software.

Recombinant IDO1 = target: T2, Recombinant IDO1 (Homo sapiens, UniProt P14902); test: IDO1 enzymatic assay; type: biochemical; conditions: 50 nM IDO1, 1.3 mM D-tryptophan, read-out: Enzyme IC50 (nM) IDO1
T2 construct: His tag (N); made in house; host or cells: E. coli
T2 sequence (P14902 whole entry): as above
Description: Recombinant IDO1 was overexpressed and purified from E. coli cells with an N-terminal His tag. IDO1 enzymatic assay was carried out using a methodology similar to described in the literature (J. Biol. Chem. (1980), 255, 1339-1345.). The reaction mixture contains 50 nM IDO1, 1.3 mM D-tryptophan, 5 mM L-ascorbic acid, 6.25 μM methylene Blue, 0.4 mg/mL catalase and compound (or DMSO) in a buffer containing 50 mM potassium phosphate pH 7.5 and 0.1% BSA. After incubation at 24° C. for 1.5 hours, absorbance of the reaction mixture was continuously read at 321 nm to monitor the formation of N′-formylkynurenine by a FULOstar OMEGA plate reader (BMG LABTECH) for 1 hour. The enzymatic activity was determined by measuring the slope of the linear absorbance increase as a function of time. The IC50s are calculated based on remaining enzyme activity in the presence of increasing concentrations of compounds.

[2] = Table 1, 5-substituted imidazo[1,5-a]pyridines
[3] = Table 2, 8-substituted imidazo[1,5-a]pyridines

Row | Compound | pEC50 [1, 2] | IC50 (Recombinant IDO1; [2]) [nM] | pEC50 [1, 3] | IC50 (Recombinant IDO1; [3]) [nM]
1 | O[C@@H](c1c(C2CC2)ccc2cncn12)C1CC2CCC1C2 (stereo partly drawn) [Example A162b, (1R)-(bicyclo[2.2.1]heptan-2-yl)(6-cyclopropylimidazo[1,5-a]pyridin-5-yl)methanol] | 5.22 | 1600 | – | –
2 | OC(CC12CC3CC(CC(C3)C1)C2)c1c(C2CC2)ccc2cncn12 (stereo not drawn) [Example A163, 2-(Adamantan-1-yl)-1-(6-cyclopropylimidazo[1,5-a]pyridin-5-yl)ethan-1-ol] | 6.99 | 94 | – | –
3 | OC1CCCC(C(O)c2c(C3CC3)ccc3cncn23)C1 (stereo not drawn) [Example A164b, 3-((6-Cyclopropylimidazo[1,5-a]pyridin-5-yl)(hydroxy)methyl)cyclohexan-1-ol] | 6.65 | 42 | – | –
4 | OC1CC2CC1CC2C(O)c1c(C2CC2)ccc2cncn12 (stereo not drawn) [Example A165, 5-((6-cyclopropylimidazo[1,5-a]pyridin-5-yl)(hydroxy)methyl)bicyclo[2.2.1]heptan-2-ol] | 5.92 | 430 | – | –
5 | OC(CC1CC1)c1cccn2cncc12 (stereo not drawn) [Example B007, 2-cyclopropyl-1-(imidazo[1,5-a]pyridin-8-yl)ethan-1-ol] | – | – | < 5.00 | 6600
6 | CC(O)(CC1CCCCC1)c1cccn2cncc12 (stereo not drawn) [Example B009, 1-cyclohexyl-2-(imidazo[1,5-a]pyridin-8-yl)propan-2-ol] | – | – | < 5.00 | 18000
7 | OC(CCc1cccn2cncc12)C1CCCCC1 (stereo not drawn) [Example B010, 1-Cyclohexyl-3-(imidazo[1,5-a]pyridin-8-yl)propan-1-ol] | – | – | < 5.00 | 14000
8 | OC(c1c(C(F)(F)F)ccn2cncc12)C1CCCCC1 (stereo not drawn) [Example B111, Cyclohexyl(7-(trifluoromethyl)imidazo[1,5-a]pyridin-8-yl)methanol] | – | – | 6.38 | 85
9 | OC(c1c(C2CC2)ccn2cncc12)C1CCOCC1 (stereo not drawn) [Example B112, (7-Cyclopropylimidazo[1,5-a]pyridin-8-yl)(tetrahydro-2H-pyran-4-yl)methanol] | – | – | 5.78 | 530
10 | CC(C)(C)c1ccn2cncc2c1C(O)C1CCCCC1 (stereo not drawn) [Example B113, (7-(tert-Butyl)imidazo[1,5-a]pyridin-8-yl)(cyclohexyl)methanol] | – | – | 5.03 | 1300
11 | OC(c1c(C2CCC2)ccn2cncc12)C1CCCCC1 (stereo not drawn) [Example B114, (7-Cyclobutylimidazo[1,5-a]pyridin-8-yl)(cyclohexyl)methanol] | – | – | 5.52 | 630
12 | C=CC(O)c1c(C2CC2)ccn2cncc12 (stereo not drawn) [Example B115, 1-(7-Cyclopropylimidazo[1,5-a]pyridin-8-yl)prop-2-en-1-ol] | – | – | < 5.00 | 120
13 | OC(c1c(Cl)ccn2cncc12)C1CC=CCC1 (stereo not drawn) [Example B116, (7-Chloroimidazo[1,5-a]pyridin-8-yl)(cyclohex-3-en-1-yl)methanol] | – | – | 5.34 | 61
14 | OC(c1c(C2CC2)ccn2cncc12)C1C2CC3CC(C2)CC1C3 (stereo not drawn) [Example B117, (Adamantan-2-yl)(7-cyclopropylimidazo[1,5-a]pyridin-8-yl)methanol] | – | – | 6.40 | 1100
15 | OC(CC12CC3CC(CC(C3)C1)C2)c1c(C2CC2)ccn2cncc12 (stereo not drawn) [Example B118, 2-(Adamantan-1-yl)-1-(7-cyclopropylimidazo[1,5-a]pyridin-8-yl)ethan-1-ol] | – | – | 6.75 | 280
16 | CC(C)c1ccn2cncc2c1C(O)C1CCC(O[Si](C)(C)C(C)(C)C)CC1 (stereo not drawn) [Example B120, (4-((tert-Butyldimethylsilyl)oxy)cyclohexyl)(7-isopropylimidazo[1,5-a]pyridin-8-yl)methanol] | – | – | < 5.00 | 790

The remaining lines, values ahead:

Row | pEC50 [1, 2] | IC50 (Recombinant IDO1; [2]) [nM] | pEC50 [1, 3] | IC50 (Recombinant IDO1; [3]) [nM] | Compound
17 | – | – | 6.94 | 53 | OC(c1c(C2CC2)ccn2cncc12)C1CC2CCC1C2 (stereo not drawn) [Example B122, bicyclo[2.2.1]heptan-2-yl(7-cyclopropylimidazo[1,5-a]pyridin-8-yl)methanol]
18 | – | – | 7.48 | 58 | O[C@H](c1c(C2CC2)ccn2cncc12)[C@H]1C[C@H]2CC[C@@H]1C2 [Example B122a, (S)-((1R,2S,4S)-bicyclo[2.2.1]heptan-2-yl)(7-cyclopropylimidazo[1,5-a]pyridin-8-yl)methanol]
19 | – | – | 6.12 | 260 | OC(c1c(C2CC2)ccn2cncc12)C1CC2C=CC1CC2 (stereo not drawn) [Example B123, Bicyclo[2.2.2]oct-5-en-2-yl(7-cyclopropylimidazo[1,5-a]pyridin-8-yl)methanol]
20 | – | – | 6.42 | 440 | OC(c1c(C2CC2)ccn2cncc12)C1CC2CCC1CC2 (stereo not drawn) [Example B124, Bicyclo[2.2.2]octan-2-yl(7-cyclopropylimidazo[1,5-a]pyridin-8-yl)methanol]
21 | – | – | 5.07 | 170 | O=C(NC1CC1)c1cccc(C(O)c2c(C3CC3)ccn3cncc23)c1 (stereo not drawn) [Example B125, N-cyclopropyl-3-((7-cyclopropylimidazo[1,5-a]pyridin-8-yl)(hydroxy)methyl)benzamide]
22 | – | – | < 5.00 | 310 | O=C(OCc1ccccc1)N1CCCC(C(O)c2c(C3CC3)ccn3cncc23)C1 (stereo not drawn) [Example B129, Benzyl-3-((7-cyclopropylimidazo[1,5-a]pyridin-8-yl)(hydroxy)methyl) piperidine-1-carboxylate]
23 | – | – | < 5.00 | 1700 | CC(C)(C)OC(=O)NCC(=O)N1CCCC(C(O)c2c(C3CC3)ccn3cncc23)C1 (stereo not drawn) [Example B131, tert-Butyl (2-(3-((7-cyclopropylimidazo[1,5-a]pyridin-8-yl)(hydroxy)methyl)piperidin-1-yl)-2-oxoethyl) carbamate]
24 | – | – | < 5.00 | 13000 | NCC(=O)N1CCCC(C(O)c2c(C3CC3)ccn3cncc23)C1 (stereo not drawn) [Example B132, 2-Amino-1-(3-((7-cyclopropylimidazo[1,5-a]pyridin-8-yl)(hydroxy)methyl)piperidin-1-yl)ethan-1-one]
25 | – | – | < 5.00 | 2000 | O=C(c1ccccc1)N1CCCC(C(O)c2c(C3CC3)ccn3cncc23)C1 (stereo not drawn) [Example B134, (3-((7-Cyclopropylimidazo[1,5-a]pyridin-8-yl)(hydroxy)methyl)piperidin-1-yl)(phenyl) methanone]
26 | – | – | 6.54 | 760 | OCC1(C(O)c2c(C3CC3)ccn3cncc23)CCCCC1 (stereo not drawn) [Example B136, (7-Cyclopropylimidazo[1,5-a]pyridin-8-yl)(1-(hydroxymethyl)cyclohexyl)methanol]
27 | – | – | 5.48 | 2200 | CCOC(COCC1(C(O)c2c(C3CC3)ccn3cncc23)CCCCC1)OCC (stereo not drawn) [Example B137, (7-Cyclopropylimidazo[1,5-a]pyridin-8-yl)(1-((2,2-diethoxyethoxy)methyl)cyclohexyl)methanol]
28 | – | – | < 5.00 | 1000 | O=C(O)C1CCCC(C(O)c2c(C3CC3)ccn3cncc23)C1 (stereo not drawn) [Example B138, 3-((7-Cyclopropylimidazo[1,5-a]pyridin-8-yl)(hydroxy)methyl)cyclohexane-1-carboxylic acid]
29 | – | – | 6.70 | 85 | OC(c1c(C2CC2)ccn2cncc12)C1CC2CC2C1 (stereo not drawn) [Example B139, bicyclo[3.1.0]hexan-3-yl(7-cyclopropylimidazo[1,5-a]pyridin-8-yl)methanol]
30 | – | – | 6.83 | 71 | OC(c1c(C2CC2)ccn2cncc12)C1CCC2CC2C1 (stereo not drawn) [Example B140, bicyclo[4.1.0]heptan-3-yl(7-cyclopropylimidazo[1,5-a]pyridin-8-yl)methanol]
